Data published in patent US20080249129A1, “Compositions and Methods for Treatment of Protein Misfolding Diseases” (priority 2004, published 2008).
Structures can show the parent of a compound that is named as a salt. Where two headings read alike, the source gives them in different places. Peptide text beside a SMILES is read from it.

Legend:
Type in all cases: cell-based
[1] = test system: yeast expressing one copy of alpha synuclein
Text: (§1) Phenotype MicroArray™ (Biolog, Inc., Hayward, Calif.) was employed to evaluate the effects of various compounds in yeast expressing one or two copies of alpha synuclein.

[2] = test system: yeast expressing two copies of alpha synuclein
Text: (§2) An exemplary aS-expressing yeast cell for use in a growth rescue screen described herein is yeast expressing two copies of aS, as described in Outeiro et al. (2003) Science 302:1772. An exemplary htt-expressing strain for use in a growth rescue screen described herein is yeast expressing a fusion protein comprising a FLAG tag and an expanded htt polyQ (103) domain, as described in Meriin et al. (2002) J. Cell Biol. 158:591.
as §1

[3] = test system: yeast expressing a toxic amount and form of huntingtin
Text: For example, the Bioscreen-C system (Labsystem Corp, Helsinki, Finland) permits the growth of up to 200 cell cultures at the same time, under different conditions. Growth rates are monitored optically, recorded automatically, and stored as digital files for further manipulations. […] Mutants and chemicals from a variety of sources will be tested.
(§3) Phenotype MicroArray™ (Biolog, Inc., Hayward, Calif.) was employed to evaluate the ability of various compounds to rescue viability in yeast expressing a toxic amount and form of huntingtin. […] Bioscreen C MBR (Labsystem Corp, Helsinki, Finland) was also used to evaluate the effects of the clioquinols.

[4] = test system: yeast expressing a toxic amount and form of huntingtin; remark: listed apart in the source
Text: as §2, §3

[5] = yeast expressing one copy of alpha synuclein, Phenotype MicroArray
[6] = yeast expressing two copies of alpha synuclein, Phenotype MicroArray
[7] = yeast expressing toxic huntingtin, Phenotype MicroArray
[8] = yeast expressing toxic huntingtin, Bioscreen C MBR

Molecule: CC1=C(C(=O)Nc2ccccc2)SCCO1 [carboxin]
- effect on alpha synuclein-mediated toxicity [1, 5]: enhancers of alpha synuclein-mediated toxicity

Molecule: Oc1c(Cl)cc(Cl)c(Cl)c1Cc1c(O)c(Cl)cc(Cl)c1Cl [hexachlorophene]
- effect on alpha synuclein-mediated toxicity [2]: suppressors of alpha synuclein-mediated toxicity

Molecule: O=[Si]([O-])[O-].[Na+].[Na+] [sodium metasilicate]
- effect on alpha synuclein-mediated toxicity [2, 6]: suppressors of alpha synuclein-mediated toxicity

Molecule: sodium metavanadate
- effect on alpha synuclein-mediated toxicity [2]: suppressors of alpha synuclein-mediated toxicity

Molecule: OP(O)(O)=S [thiophosphate]
- effect on alpha synuclein-mediated toxicity [1, 5]: enhancers of alpha synuclein-mediated toxicity

Molecule: CCCCCCCCCCCCC/C=C/[C@@H](O)[C@@H](N)CO [D-Sphingosine]
- effect on alpha synuclein-mediated toxicity [1, 5]: enhancers of alpha synuclein-mediated toxicity

Molecule: CN(C)C(=O)/N=N/C(=O)N(C)C [diamide]
- effect on alpha synuclein-mediated toxicity [1, 5]: enhancers of alpha synuclein-mediated toxicity

Molecule: CCCCCCCCCCCC[N+](C)(C)C.[Br-] [dodecyltrimethyl ammonium bromide]
- effect on alpha synuclein-mediated toxicity [1, 5]: enhancers of alpha synuclein-mediated toxicity

Molecule: Oc1cccc2cccnc12 [8-Hydroxyquinoline]
- effect on huntingtin-mediated toxicity [3]: alleviated huntingtin-mediated toxicity
- effect on huntingtin-mediated toxicity (rescue of viability) [4]: suppressors of huntingtin-mediated toxicity

Molecule: N=C(N)N [guanidine hydrochloride]
- effect on huntingtin-mediated toxicity (rescue of viability) [4, 7]: suppressors of huntingtin-mediated toxicity

Molecule: CC1=CC(=O)c2c(O)cccc2C1=O [plumbagin]
- effect on alpha synuclein-mediated toxicity [1, 5]: enhancers of alpha synuclein-mediated toxicity

Molecule: CSCC[C@H](NC(=O)[C@@H](N)Cc1ccccc1)C(=O)O [Phe-Met] (H-Phe-Met-OH)
- effect on alpha synuclein-mediated toxicity [1, 5]: enhancers of alpha synuclein-mediated toxicity

Molecule: O=S([O-])([O-])=S.[Na+].[Na+] [sodium thiosulfate]
- effect on alpha synuclein-mediated toxicity [1]: enhancers of alpha synuclein-mediated toxicity

Molecule: CC(Cc1ccc(O)c(O)c1)C(C)Cc1ccc(O)c(O)c1 (stereo not drawn) [nordihydroguaiaretic acid]
- effect on alpha synuclein-mediated toxicity [2]: suppressors of alpha synuclein-mediated toxicity
- effect on huntingtin-mediated toxicity (rescue of viability) [4]: suppressors of huntingtin-mediated toxicity

Molecule: O=[N+]([O-])c1ccc(O)c2ncccc12 [8-Hydroxy-5-nitroquinoline]
- effect on huntingtin-mediated toxicity [3, 8]: alleviated huntingtin-mediated toxicity
- effect on huntingtin-mediated toxicity (rescue of viability) [4, 7]: suppressors of huntingtin-mediated toxicity

Molecule: ruthenium red
- effect on alpha synuclein-mediated toxicity [2, 6]: suppressors of alpha synuclein-mediated toxicity

Molecule: Cc1ccc2c(Cl)cc(Cl)c(O)c2n1 [5,7-Dichloro-8-hydroxy-quinaldine]
- effect on huntingtin-mediated toxicity [3, 8]: alleviated huntingtin-mediated toxicity
- effect on huntingtin-mediated toxicity (rescue of viability) [4, 7]: suppressors of huntingtin-mediated toxicity

Molecule: COc1ccc(C[C@H]2NC[C@H](O)[C@H]2OC(C)=O)cc1 [anisomycin]
- effect on alpha synuclein-mediated toxicity [1, 5]: enhancers of alpha synuclein-mediated toxicity

Molecule: CC(C)Cc1ccc(C(C)C(=O)O)cc1 (stereo not drawn) [ibuprofen]
- effect on alpha synuclein-mediated toxicity [2]: suppressors of alpha synuclein-mediated toxicity

Molecule: CC1=C(C(=O)Nc2ccccc2)S(=O)(=O)CCO1 [oxycarboxin]
- effect on alpha synuclein-mediated toxicity [1, 5]: enhancers of alpha synuclein-mediated toxicity

Molecule: COc1ccc2c(c[n+](C)c3c4cc5c(cc4ccc23)OCO5)c1OC [chelerythrine]
- effect on alpha synuclein-mediated toxicity [1, 5]: enhancers of alpha synuclein-mediated toxicity

Molecule: O=C([O-])c1ccccc1.[Na+] [sodium benzoate pH 5.2, sodium benzoate]
- effect on alpha synuclein-mediated toxicity [1, 5]: enhancers of alpha synuclein-mediated toxicity

Molecule: CCC(O)C(=O)O (racemic) [D,L-a-hydroxy-butyric acid]
- effect on alpha synuclein-mediated toxicity [2]: suppressors of alpha synuclein-mediated toxicity

Molecule: CC[C@@]1([C@@H]2O[C@@H]([C@H]3O[C@@](O)(CO)[C@H](C)C[C@@H]3C)C[C@@H]2C)CC[C@H]([C@]2(C)CC[C@]3(C[C@H](O)[C@@H](C)[C@@H]([C@@H](C)[C@@H](OC)[C@H](C)C(=O)O)O3)O2)O1 [monensin]
- effect on alpha synuclein-mediated toxicity [1, 5]: enhancers of alpha synuclein-mediated toxicity

Molecule: OP(O)(=S)S [dithiophosphate]
- effect on alpha synuclein-mediated toxicity [1, 5]: enhancers of alpha synuclein-mediated toxicity

Molecule: CC[C@H](C)[C@H](N)C(=O)O [L-Isoleucine]
- effect on alpha synuclein-mediated toxicity [1, 5]: enhancers of alpha synuclein-mediated toxicity

Molecule: sodium phosphate [sodium phosphate pH 7]
- effect on alpha synuclein-mediated toxicity [1]: enhancers of alpha synuclein-mediated toxicity

Molecule: Cc1cccc(O)c1 [m-cresol]
- effect on alpha synuclein-mediated toxicity [2, 6]: suppressors of alpha synuclein-mediated toxicity
- effect on huntingtin-mediated toxicity (rescue of viability) [4, 7]: suppressors of huntingtin-mediated toxicity
